Holding throughout (type): functional, cell-based
The subject of test [1] is SK-OV-3. The test can be described thus: Cytotoxicity against human SKOV3 Cells after 24 hrs by MTT assay. The following applies: SK-OV-3, 24 h.
The subject of test [2] is K562. In words: Antiproliferative activity against human K562 Cells.
A short description of test [3]: Antiproliferative activity against human K562/G01 cells.
Test [4] has as its system L02. The test can be described thus: Cytotoxicity against human LO2 Cells.
The test system of test [5] is THP-1. The test can be described thus: Cytotoxicity against human THP1 Cells.
The subject of test [6] is HepG2. In words: Cytotoxicity against human HepG2 Cells.
Test [7] concerns HeLa. In words: Cytotoxicity against human HeLa Cells.
For test [8], the system named is NCI-H460. The test can be described thus: Cytotoxicity against human H460 cells by MTT assay. (In general: Tetrazolium assays rely on reduction of a dye to a coloured formazan, in cell work by metabolically active cells.)
Test [9] relates to PANC-1. In words: Cytotoxicity against human PANC1 cells by MTT assay.
For test [10], the system named is A549. In words: Cytotoxicity against human A549 Cells by MTT assay.
Test [11] relates to MCF7. In words: Cytotoxicity against human MCF7 cells by MTT assay.
The subject of test [12] is MIA PaCa-2. In words: Cytotoxicity against human MIAPaCa2 cells by MTT assay.
Test [13] concerns HT-29. In words: Cytotoxicity against human HT-29 cells by MTT assay.
Test [14] relates to PC-3. The test can be described thus: Cytotoxicity against human PC3 cells by MTT assay.
The subject of test [15] is BXPC-3. In words: Cytotoxicity against human BxPC3 cells.
Test [16] relates to HT-29. In words: Cytotoxicity against human HT-29 Cells.
Test [17] deals with RWPE-1. The test can be described thus: Cytotoxicity against human RWPE1 cells.
Test [18] has as its system NCI-H1299. The test can be described thus: Cytotoxicity against human H1299 cells.
Test [19] has as its system PC-3. The test can be described thus: Cytotoxicity against human PC3 cells.

Molecules are shown by their SMILES.

As usually defined, the IC50 is the concentration needed to halve the response being measured.

On to `COc1cc(/C=C/C2=NN(c3nc(/N=C4/CC[C@H]5[C@@H]6CC[C@H]7C[C@@H](OC(C)=O)CC[C@]7(C)[C@H]6CC[C@]45C)cc(=O)[nH]3)C(/C=C/c3cc(OC)cc(OC)c3)C2)cc(OC)c1` (stereo not given in full), for which, in test [1], half-maximal inhibition (IC50) required 2500 nM.

For the compound `COc1cc(/C=C/C(=O)C(=Cc2ccncc2)C(=O)/C=C/c2ccc(O)c(OC)c2)ccc1O`, the IC50 in test [2] was 1100 nM; in [3] it was 600 nM.

Consider `C/C(=C/C(=O)c1ccccc1)Nc1cccc(/C=C2\CN(C)C/C(=C\c3cccc(N/C(C)=C/C(=O)c4ccccc4)c3)C2=O)c1`, for which the IC50 in [4] was 13100 nM; in test [2] it was 4800 nM; in test [5] it was 1170 nM; in test [6], 5520 nM; in test [7], over 10000 nM.

Consider `CN1CC(Cc2ccc(N(C)C)cc2[N+](=O)[O-])C(=NO)C(Cc2ccc(N(C)C)cc2[N+](=O)[O-])C1` (stereo not given), for which the IC50 in test [8] was determined as 80 nM; in test [9] it was 100 nM; in [10], 90 nM; in test [11], 90 nM; in [12], 70 nM; in test [13], 50 nM. In [14], the IC50 was found to be 80 nM.

In the case of `COc1cc(/C=C2/C(=O)/C(=C/c3cc(OC)c(OC)c(OC)c3)c3ccccc32)cc(OC)c1OC`, the IC50 in test [15] is 990 nM; in test [16], 980 nM; in [17], 9120 nM; in [18], 950 nM; in test [19], 640 nM.

Source of the values: ChEMBL document CHEMBL4364241, “Developments in the anticancer activity of structurally modified curcumin: An up-to-date review” (Eur J Med Chem, 2019).
